Assays:
[1] = system: interferon regulatory factor (IRF)3 activity; assay: IRF3 reporter activity in THP-1 Dual cells (QUANTI-Luc); format: cell-based, Human; conditions: for IRF and NF-kB activation compared with 2.3cGAMP: THP-1 reporter cell line, FIG. 30
Procedure: (§1) In vitro evaluation of CDN-NP activity: Human monocyte THP-1 Dual™ cells, THP-1 Dual™ KO-STING cells, RAW-Lucia™ ISG cells and RAW-Lucia™ ISG KO-STING cells were seeded in 96-well plates at 1×10^5 cells per well and incubated with the CDN-NP or free CDN at CDN concentrations ranging from 0-500 nM. At 24 h post treatment, interferon regulatory factor (IRF)3 activity was examined using the QUANTI-Luc™ reagent (InvivoGen) and NF-κB activity (only THP-1 Dual™ cells) was determined using the QUANTI-Blue™ reagent (InvivoGen) according to the manufacturer's instructions.

IRF response = assay: IRF reporter response in RAW-Lucia ISG cells; format: cell-based, murine
Procedure: as §1

[2] = Pharmacokinetics in plasma after i.v. administration (LC-MS-MS and fluorescence); format: in vivo, C57BL/6 mice; conditions: 15 min after i.v.
Procedure: Pharmacokinetics of CDN-NPs: Non-tumor bearing 6-8-week-old female C57BL/6 mice were injected i.v. (100 μL per mouse) with fluorescent CDN-NPs and whole blood was collected 0.25, 0.5, 1, 3, 6, and 24 h post injection in Eppendorf tubes containing heparin though submandibular bleed (for early time points) or cardiac puncture (for late time points). Plasma was obtained by centrifugation for 20 mins at 10000×g. Fluorescent CDN-NPs were quantified using a 640 nm excitation and 680 emission wavelength by plate reader and CDN was also quantified by LC-MS/MS.

[3] = system: immune cell populations in the TME, tdLN, and spleen; assay: Immunophenotyping by flow cytometry in B16-F10 tumor-bearing mice; format: in vivo, C57BL6/J mice
Procedure: Immunophenotyping analysis: Subcutaneous B16-F10 tumors were established in female C57BL6/J mice (6-8 weeks old), as previously described. The treatment groups were: PBS (untreated control), aPD-1 mAb, free CDN, free CDN with aPD-1 mAb, CDN-NPs, and CDN NPs with aPD-1 mAb. CDN formulations (free drug or NP, 0.5 μg CDN) were administered intravenously and aPD-1 mAb (100 μg) was administered intraperitoneally 24 h after CDN treatment. Dendritic cells and macrophages were assessed 48 h after treatment and T cells were analyzed 7 days post-treatment. Tumors were harvested, chopped, and digested in a solution of HBSS supplemented with collagenase I, II, and IV (100 ng/mL) and DNase I […] for 2 h at 37° C. TdLNs and spleens were harvested and mechanically dissociated. Single cell suspensions of tumors, tdLNs, and spleens were filtered through a 40 µm nylon cell strainer. Spleen and tumor cells were further treated with ACK Lysing Buffer (Gibco). Cells were washed, filtered through a 40 μm nylon cell strainer, and counted. For intracellular IFN-γ cytokine analysis, 1×10^6 cells were seeded in a 24-well plate in DMEM containing 10% (v/v) FBS and supplemented with PMA/ionomycin/Brefeldin A cocktail (BioLegend). After 4 h, the cells were washed and stained in 100 μL cell staining buffer (BioLegend). Intracellular staining was performed using an intracellular staining permeabilization wash buffer (BioLegend) The following anti-mouse antibodies were used for flow cytometry were purchased from BioLegend: CD45 APC-Cy7 (clone 30-F11), NK-1.1 BV710 (clone PK136), IFN-γ BV421 (clone XMG1.2), CD279 (PD-1) FITC (clone 29F.1A12), CD45 BV785 (clone 30-F11), CD11b BV421 (clone M1/70), Ly-6C APC-Cy7 (clone HK1.4), Ly-6G BV661 (clone 1A8), CD8a BV421 (clone 53-6.7), CD86 BV510 (clone GL-1), CD80 BV711 (clone 16-10A1), CD206 PE (clone C068C2), MHCII BV605 (clone M5/114.15.2), CD11c APC (clone N418), Siglec H PE (clone 551), and CD44 BV786 (clone IM7).
The following anti-mouse antibodies were purchased from BD Biosciences: CD3 BB700 (clone 17A2), CD4 BUV395 (clone GK1.5), CD8a BUV737 (clone 53-6.7), F4/80 BUV395 (clone T45-2342), CD103 BUV395 (clone M290), CD80 BUV737 (clone 16-10A1), ki67 BV510 (clone B56), CD69 BV605 (clone H1.2F3), and CD62L PE-CF594 (clone MEL-14). Live cells were gated using LIVE/DEAD™ (Thermo Fisher) aqua (cat. no. L34966), green (cat. no. L34970), or near-IR (cat. no. L34976). Stained cells were analyzed by flow cytometry using a BD LSRFortessa™ flow cytometer (BD Biosciences) and all data were analyzed using FlowJo software (FlowJo LLC).

[4] = system: bone-marrow derived macrophages (BMDMs); assay: Primary immune cell activation, flow cytometry; format: cell-based, C57BL/6 mice
Procedure: BMDC and BMDM isolation: The tibias and femurs of female wild type or goldenticket C57BL/6 mice (aged 8-12 weeks) were isolated and flushed to harvest bone marrow and to obtain a progenitor cell population. To generate BMDMs, 4-6×10^6 bone marrow cells were cultured in non-tissue culture treated T175 flasks with 25 mL of DMEM/F12 supplemented with 10% (v/v) FBS, 1% (v/v) P/S, 5% (v/v) GlutaMAX and recombinant murine macrophage-colony-stimulating factor (M-CSF, 20 ng/mL). The flasks were supplemented with additional medium on day 3 and day 6. To generate BMDCs, 2×10^6 bone marrow cells were added to non-tissue culture-treated petri dishes and cultured in 10 mL of RPMI-1640 supplemented with 10% (v/v) FBS, 1% (v/v) and recombinant murine granulocyte-macrophage colony-stimulating factor (GM-CSF, 20 ng/mL), 10 mL more of which was added on day 3. […]
Assessment of primary immune cell activation: BMDCs or BMDMs were seeded in 24-well plates at 2×10^5 cells per well and incubated with the CDN-NP or free CDN at equal CDN concentrations ranging from 1-100 nM. […] After 24 hours, the supernatant was removed and cells were then collected, washed, stained, fixed, and analyzed by flow cytometry. […] In addition, IFN-0, IL-6, and TNF-α were analyzed from the supernatant using a custom Legendplex™ panel (BioLegend) as per the manufacturer's instructions.

B16-F10 tumors = assay: In vivo therapeutic efficacy, B16-F10 melanoma; set-up: species or system mice; conditions: B16-F10, 0.5 μg CDN i.v. x3, 4 d apart
Procedure: In vivo therapeutic efficacy: B16-F10, 4T1, and CT-26 cells were injected subcutaneously into the right flank of 6-8-week-old female mice (of the appropriate background for the cell type) in 100 μL HBSS at densities of 5×10^5, 1×10^6, and 1×10^6 cells/injection, respectively. Approximately 7 days post tumor inoculation (˜50 mm^3), mice were subjected to intravenous injection (100 μL) of free CDN or CDN-NP at a CDN dose of 0.5 μg. Mice were injected 3 times with treatments spaced 4 d apart. Groups receiving checkpoint blockade were injected intraperitoneally 24 h post systemic administration with 100 μg anti-PD-1 (clone RMP1.14, Bio X Cell). The tumor size was measured every other day via caliper measurements and the tumor volume calculated using the equation V=L×W×H×(π/6). Body weight was measured contemporaneously with tumor volume.

[5] = tdLN, 7 d after single treatment

| SMILES | EC50 ([1]; THP-1 Dual cells, 24 h, read-out: EC50 IRF3 activation) [nM] | IRF and NF-kB activation compared with 2.3cGAMP [1] | EC50 (IRF response) [nM] | CDN (nM) in plasma [2] [nM] | CDN (nM) in plasma ([2]; listed as free CDNs) [nM] | CD86 expression on DCs in the spleen ([3]; 48 h after i.v., B16-F10) [%] | proportion of CD4+ T cells secreting IFN-γ in the TME ([3]; 7 d, ex vivo restimulation) [%] | proportion of CD8+ T cells secreting IFN-γ in the TME ([3]; 7 d, ex vivo restimulation) [%] | CD4+ central memory T cells (TCM) [3, 5] [%] | CD4+ effector memory T cells (TEM) [3, 5] [%] | dose required to achieve the same degree of CD86 upregulation (15-fold) [4] [nM] | tumor growth and survival (B16-F10 tumors) |
| --- | --- | --- | --- | --- | --- | --- | --- | --- | --- | --- | --- | --- |
| Nc1nc2c(ncn2[C@@H]2O[C@@H]3CO[P@@](=O)(S)O[C@H]4C[C@H](Oc5ccncn5)C[C@@H]4CO[P@@](=O)(S)O[C@@H]2[C@@H]3O)c(=O)[nH]1 [free CDN, 2-Amino-9-[(2R,5R,7R,8R,10R,12aR,14R,15aS,16R)-16-hydroxy-2,10-dioxido 14-(pyrimidin-4-yloxy)-2,10-disulfanyldecahydro-5,8 methanocyclopenta[1][1,3,6,9,11,2,10]pentaoxadiphosphacyclotetradecin-7-yl]-1,9-dihydro-6H-purin-6-one] | 1150 | higher IRF and NF-kB activation than 2.3cGAMP | > 1000 | <5 | < 5 | 8.4±1.3 | 4.0±1.0 | 15.7±3.5 | 6.2±0.4 | 5.3±0.8 | 100 | only a modest suppression of tumor growth and no increase in survival |
| CC(C)[C@H](NC(=O)CCCCCN1C(=O)C=CC1=O)C(=O)N[C@@H](C)C(=O)Nc1ccc(COC(=O)N(C)Cc2ccccc2C(=O)Nc2nc3c(ncn3[C@@H]3O[C@@H]4CO[P@@](=O)(S)O[C@H]5C[C@H](Oc6ccncn6)C[C@@H]5CO[P@@](=O)(S)O[C@@H]3[C@@H]4O)c(=O)[nH]2)cc1 [CDN-linker, 4-{[(2S)-2-{[(2S)-2-{[6-(2,5-Dioxo-2,5-dihydro-1H-pyrrol-1 yl)hexanoyl]amino}-3-methylbutanoyl]amino}propanoyl]amino}benzyl [2-({9[(2R,5R,7R,8R,10R,12aR,14R,15aS,16R)-16-hydroxy-2,10-dioxido-14-(pyrimidin-4-yloxy)-2,10-disulfanyldecahydro-5,8-methanocyclopenta[1][1,3,6,9,11,2,10]Pentaoxadiphosphacyclotetradecin-7-yl]-6-oxo-6,9-dihydro-1H-purin-2-yl}carbamoyl)benzyl]methylcarbamate] |  | higher IRF and NF-kB activation than 2.3cGAMP |  |  |  |  |  |  |  |  |  |  |

Source: patent US20240398980A1, “NUCLEIC ACID-CONJUGATED POLYMERIC NANOPARTICLES AND METHODS OF USE” (The Brigham and Women's Hospital, Inc., priority 2021, published 2024)
